System: TERT-RPE1
Test: Here: values are normalized to the negative (DMSO; defined as 0% autophagy induction) and positive (250nM Torin1; mTOR inhibitor; defined as maximal inducer of autophagy = 100%) control compounds and represented as % of autophagy induction. […] The impact of autophagy induction on cells is complex and depends on the affected target. As such, the magnitude of a phenotype may not be equally mirrored in the %-value of autophagy induction and vice versa. The dynamics of the induction may indicate the mode of activation: e.g. activation via phosphorylation or a signaling cascade may occur fast, while activation via transcription factors may take considerably longer. […] Of note, treatment concentrations may be sub-optimal for specific compounds, leading to false negative annotations.
Format: functional, Homo sapiens
Conditions: Compound Concentration 1 uM, Culturing Media DMEM/F12 (1:1), 1 % Penicillin/Streptomycin, 10% Fetal bovin serum Add-On: No, Screening Media Control DMEM/F12 (1:1), Screening Media Samples DMEM/F12 (1:1)

COC(=O)/C=C/c1cccc(N(Cc2ccc(-c3ccc(N(C)C)cc3)cc2)C(=O)C2CCCCC2)c1 [FEXARAMINE] gave an autophagy induction (Timepoint 12 hours) of -11.8732%, an autophagy induction (Timepoint 24 hours) of 0.4959% and an autophagy induction (Timepoint 36 hours) of 16.8927%. For the same compound, the autophagy induction (Timepoint 60 hours) was -24.9579%.
In the case of O=C(NCCS(=O)(=O)c1ccc(C(F)(F)F)cn1)c1ccc(Cl)cc1, the autophagy induction (Timepoint 12 hours) was -3.2973%, the autophagy induction (Timepoint 24 hours) was -5.225% and the autophagy induction (Timepoint 36 hours) was 0.4695%. For the same compound, the autophagy induction (Timepoint 60 hours) was 10.0166%.
CO[C@H]1/C=C/O[C@@]2(C)Oc3c(C)c(O)c4c(O)c(c(/C=N/N5CCN(C)CC5)c(O)c4c3C2=O)NC(=O)/C(C)=C\C=C\[C@H](C)[C@H](O)[C@@H](C)[C@@H](O)[C@@H](C)[C@H](OC(C)=O)[C@@H]1C [RIFAMPIN] gave an autophagy induction (Timepoint 12 hours) of -6.53%, an autophagy induction (Timepoint 24 hours) of -7.862% and an autophagy induction (Timepoint 36 hours) of -4.147%. For the same compound, the autophagy induction (Timepoint 60 hours) was 5.829%.
Work on Cn1cc(C(=O)O)c2ccc(N3CCC(OCc4c(-c5c(Cl)cccc5Cl)noc4C4CC4)CC3)cc21 [TERN-101] yielded an autophagy induction (Timepoint 12 hours) of -2.759%, an autophagy induction (Timepoint 24 hours) of -6.198% and an autophagy induction (Timepoint 36 hours) of -6.322%. The autophagy induction (Timepoint 60 hours) was 3.921%.
Compound COC(=O)C(Cc1ccc(OCCn2c(=O)sc3cc(C(=O)c4ccccc4)ccc32)cc1)C(=O)OC has an autophagy induction (Timepoint 12 hours) of -14.8184%, an autophagy induction (Timepoint 24 hours) of -7.449% and an autophagy induction (Timepoint 36 hours) of 12.2337%. The autophagy induction (Timepoint 60 hours) was -20.3416%.
With CCCc1c(OCCCOc2ccc(OCC(=O)O)cc2)ccc(C(C)=O)c1O the autophagy induction (Timepoint 12 hours) was -6.598%, the autophagy induction (Timepoint 24 hours) was -4.053% and the autophagy induction (Timepoint 36 hours) was -2.5514%. For the same compound, the autophagy induction (Timepoint 60 hours) was -8.413%.
CCOC(=O)N1CCC(CN(Cc2ccc(Cl)cc2)Cc2ccc([N+](=O)[O-])s2)C1 (centres undefined) [SR9009] gave an autophagy induction (Timepoint 12 hours) of -2.29%, an autophagy induction (Timepoint 24 hours) of -4.7715% and an autophagy induction (Timepoint 36 hours) of -4.329%. The autophagy induction (Timepoint 60 hours) was -0.7127%.
O=C(Nc1ccc(C(O)(C(F)(F)F)C(F)(F)F)cc1)c1ccc(C(F)(F)F)cc1 gave an autophagy induction (Timepoint 12 hours) of 1.9218%, an autophagy induction (Timepoint 24 hours) of 1.011% and an autophagy induction (Timepoint 36 hours) of 4.384%. For the same compound, the autophagy induction (Timepoint 60 hours) was 2.099%.
For Cc1cc(OCC(=O)O)cc(C)c1Cc1ccc(O)c(C(C)C)c1 [SOBETIROME], the autophagy induction (Timepoint 12 hours) was -4.298%, the autophagy induction (Timepoint 24 hours) was -6.005% and the autophagy induction (Timepoint 36 hours) was 3.899%. For the same compound, the autophagy induction (Timepoint 60 hours) was 12.5403%.
Cl.O=C(O)Cc1cccc(OCCCN(Cc2cccc(C(F)(F)F)c2Cl)CC(c2ccccc2)c2ccccc2)c1 showed an autophagy induction (Timepoint 12 hours) of -4.945%, an autophagy induction (Timepoint 24 hours) of -7.042% and an autophagy induction (Timepoint 36 hours) of -10.7668%. For the same compound, the autophagy induction (Timepoint 60 hours) was -6.3424%.
With CC(C)c1onc(-c2c(Cl)cccc2Cl)c1COc1ccc(/C=C/c2cccc(C(=O)O)c2)c(Cl)c1 the autophagy induction (Timepoint 12 hours) was -17.7139%, the autophagy induction (Timepoint 24 hours) was -8.477% and the autophagy induction (Timepoint 36 hours) was 8.951%. It also gave an autophagy induction (Timepoint 60 hours) of -22.8602%.
With CC(C)c1c(CN(C)C(C)Cc2ccccc2)n(C)n(-c2ccccc2)c1=O (centres undefined) [FAMPROFAZONE] the autophagy induction (Timepoint 12 hours) was -9.526%, the autophagy induction (Timepoint 24 hours) was -5.45% and the autophagy induction (Timepoint 36 hours) was -2.084%. For the same compound, the autophagy induction (Timepoint 60 hours) was -36.1562%.
With CC[C@H](C)C(=O)O[C@H]1C[C@@H](C)C=C2C=C[C@H](C)[C@H](CC[C@@H]3C[C@@H](O)CC(=O)O3)[C@H]21 [LOVASTATIN] the autophagy induction (Timepoint 12 hours) was -7.01%, the autophagy induction (Timepoint 24 hours) was 13.8584% and the autophagy induction (Timepoint 36 hours) was 45.8036%. The autophagy induction (Timepoint 60 hours) was 48.5439%.
CSc1ccc(C(=O)/C=C/c2cc(C)c(OC(C)(C)C(=O)O)c(C)c2)cc1 [ELAFIBRANOR] showed an autophagy induction (Timepoint 12 hours) of -15.4717%, an autophagy induction (Timepoint 24 hours) of -8.668% and an autophagy induction (Timepoint 36 hours) of 8.143%. It also gave an autophagy induction (Timepoint 60 hours) of -14.713%.
Cc1cccc(CN2CCN(C(c3ccccc3)c3ccc(Cl)cc3)CC2)c1.Cl.Cl (centres undefined) gave an autophagy induction (Timepoint 12 hours) of 89.2215%, an autophagy induction (Timepoint 24 hours) of -0.434% and an autophagy induction (Timepoint 36 hours) of 13.2807%. The autophagy induction (Timepoint 60 hours) was -24.9822%.
Work on COC(=O)c1sccc1S(=O)(=O)Nc1ccc(Nc2ccccc2)cc1OC yielded an autophagy induction (Timepoint 12 hours) of -12.2106%, an autophagy induction (Timepoint 24 hours) of -1.2% and an autophagy induction (Timepoint 36 hours) of 15.0919%. It also gave an autophagy induction (Timepoint 60 hours) of -15.7117%.
